Test results published in patent publication US12427183B2, “Methods of treating cancer, infectious disease, and autoimmune disease using chemokines” (New York Society for the Relief of the Ruptured and …, priority 2016, dated 2025).

Tests used:
[1] = system: PBMCs and pDC-depleted PBMCs; assay: IFN-α production in PBMCs and pDC-depleted PBMCs cultured with CpG and chemokines (ELISA); type: cell-based, human; settings: CpG 0.25 μM + chemokine 10 μg/ml
Description: PBMCs were prepared using Ficoll-Paque density gradient (GE Healthcare) as previously described (Guiducci et al., 2008).
pDCs were isolated from PBMCs by positive selection using BDCA4-MicroBead Kit as previously described (Guiducci et al., 2008). pDC-depleted PBMC were prepared by removing BDCA4-positive cells from PBMC using microbeads.
5×10^5 PBMCs or pDC-depleted PBMCs were cultured in 96 wells plate and stimulated with 0.25 μM CpG DNA with or without 10 μg/ml CXCL4, CXCL10, CXCL12 or CCL5. Freshly isolated pDCs were resuspended at 5×10^4 cells/100 μl RPMI 1640 medium (Gibco) and stimulated with the 0.25 μM CpG with/without 10 μg/ml indicated chemokines. The supernatant was harvested after 18 h and IFN-α was measured by ELISA.
As shown above, CXCL4 can increase IFN-α production by TLR9-activated pDCs. Thus it was tested whether other chemokines may impact TLR9 signaling in pDCs. Purified pDCs were left unstimulated (Unstim.) or cultured with CpG (0.25 μM) alone or with the indicated chemokines at 10 μg/ml. IFN-α secretion was quantified by ELISA. Strikingly, it was observed that a set of chemokines, including CXCL4, CXL10, CXCL12 and CCL5, were able to superinduce TLR9-induced response by pDCs (FIG. 18A), while they had no effect when used alone (results not shown). […] This also raised questions as to the specificity and mechanism for this effect. First, as other DNA sensors have been described to induce IFN-α in immune cells (Barrat et al., 2016), it was tested to see if these chemokines altered the specificity of the CpGs for TLR9 and if the IFN-α response was restricted to pDCs. Total PBMCs or PBMCs where pDCs were depleted (PBMC-ΔpDCs) were incubated with CpGs and either CXCL4, CXCL10, CXCL12 or CCL5 and IFN-α production was quantified by ELISA.

[2] = system: TLR9-mediated activation of pDCs; assay: TLR9-mediated activation of purified pDCs (CpG with or without chemokines), IFN-α ELISA; type: cell-based, human
[3] = system: TLR9-mediated activation of human B cells; assay: TLR9-mediated activation of human B cells (CpG with or without chemokines); type: cell-based
Description: (§1) PBMCs were prepared using Ficoll-Paque density gradient from fresh blood under internal Institutional Review Board-approved protocols. pDCs were isolated as previously described (Guiducci et al. 2008) using either using negative depletion (Miltenyi Biotech) or following cell sorting using a BD IFNLUX cell sorter. As part of the gating strategy, neutrophils were excluded by FSC/SSC and cells positive for CD14 (CD3 and CD19 as well) were first excluded in order to prevent the contamination by TLR8 positive cells and then positively gated on HLA-DR, CD123 and BDCA4 to purify the pDCs. All BDCA4+ cells also express BDCA2 (results not shown). As a result, pure pDCs were obtained and no markers for neutrophils (CD66) or myeloid cells were found by PCR. B cells were FACS sorted as CD19+ and monocytes as CD14+ cells. PBMCs were depleted of pDCs using BDCA4 beads from Miltenyi. pDCs were cultured at 10,000-30,000 cells per well in a 96-round bottom plate and incubated at 37° C., 5% CO2 and 95% humidity. After 24 hours of culture, the supernatant was collected for ELISA or Mutiplex cytokine assays. In some culture conditions, cells were cultured with the PI3Kδ inhibitor, CAL-101 (Selleck chemicals) for 24 hours. The RNA-based TLR8 agonist, ORN8-L previously described (Guidacci et al. 2013) was synthetized by Chemgenes Corporation. For the TLR8 activation assay, pDCs were incubated in complete media alone, 200 μg/ml ORN8-L in complete media or 200 μg/ml ORN8-L+ 10 μg/ml CXCL4 (R&D systems).
IL-6, TNF, and IL-10 gene levels were measured at 6 hours post culture using PCR. The secretion of cytokines/chemokines in the supernatants was quantified using Luminex. CD83, CD80, CD86 and CD69 expression was measured by flow cytometry at 24 hour post culture.
Human B cells were purified and cultured for 6 hours or 24 hours either with medium only, with CpG-C (at 0.15 μM) alone or with a combination of CpG-C and CXCL4 (at 10 μg/ml). IL-6 gene levels was measured at 6 hour post culture by PCR and CD83, CD80, CD86 and CD69 expression was measured by flow cytometry at 24 hour post culture.
Purified B cells from HDs were cultured in media alone (control), with either a CpG TLR9 agonist (0.15 μM) or with CpG and either CXCL4, CXCL10, CXCL9, CXCL4, CXCL7 or CXCL12 (all at 10 μg/ml). IL-6 was quantified in the supernatants by ELISA.
Purified B cells from HDs were cultured in media alone (control), with either a CpG TLR9 agonist (0.25 μM) or with CpG and CXCL4 or CXCL10 (10 μg/ml) alone or in the presence of the CXCR3 inhibitor AMG487 at 0, 0.1, 1 or 10 μM for 6 hours or 24 hours. IL-6 was quantified by ELISA at 24 hours and IL-6 and TNF gene expression levels were quantified by q-PCR at 6 hours and CD83, CD80, CD86 and CD69 expression was measured by flow cytometry at 24 hours post culture.

[4] = system: pDCs of HDs; assay: TLR gene expression in purified pDCs from HDs cultured with cytokines or chemokines (qPCR); type: cell-based, human; settings: 10 μg/ml each, 24 hours, pDCs from HDs
Description: as §1
PCR reactions were performed as described previously with 10 ng of cDNA (Barrat et al. 2005). In brief, RNA was extracted from cells using the Qiagen RNeasy Mini Kit. Quantity of RNA was measured by Nanodrop and high-capacity cDNA Reverse Transcription kit was used to generate 20-50 ng cDNA. Gene expression levels were calculated based on relative threshold cycle (Ct) values. This was done using the formula Relative Ct=100×1.8 (HSK-GENE), where HSK is the mean CT of duplicate housekeeping gene runs (we used Ubiquitin), GENE is the mean CT of duplicate runs of the gene of interest, and 100 is arbitrarily chosen as a factor to bring all values above 0.
In particular, CXCL4 or IP-10 (two CXCR3B agonists) (10 μg/ml each) had no impact on TLR8 nor TLR7 and TLR9 expression levels in pDCs (FIG. 2C).

[5] = CpG-B 0.15 μM + CXCL4 10 μg/ml, 6 hours

CXCL4: small chemokine of the CXC family, 70-amino acid protein released from alpha-granules of activated platelets
IFN-α production in absence of the pDCs (PBMC-ΔpDCs versus total PBMCs) [1]: dramatic decrease
TLR9 response (IFN-α) of pDCs ([2]; CXCL4 10 μg/ml, CpG-C 0.1 μM or CpG-B 0.25 μM, suboptimal doses, similar in HDs and SSc patients): drastically impacted
TLR9-induced response (IFN-α secretion) by pDCs ([2]; CpG 0.25 μM, chemokine 10 μg/ml (Example 17)): superinduce
dependence of IFN-α superinduction on chemokine receptors ([2]; with AMG487 100 nM, AMD3100 10 μg/ml, anti-CXCR7 11G8 10 μg/ml, J113863 1.5 μM or Vicriviroc 0.1 μM): independent of their chemokine receptors
effect of inhibition of CXCR3 on the chemokine's inhibition of TLR9 in B cells ([3]; CXCR3 inhibitor AMG487 0.1, 1 or 10 μM, CpG 0.25 μM, chemokine 10 μg/ml, 6 or 24 hours): no effect
activation of B cells via TLR9 as shown by the production of IL-6 ([3]; CpG 0.15 μM, chemokine 10 μg/ml, ELISA): inhibited
expression of IL-6 in B cells (PCR and protein) [3, 5]: negatively regulated
expression of IL-10 in B cells (PCR and protein) [3, 5]: negatively regulated
expression of TNF in B cells (PCR and protein) [3, 5]: negatively regulated
TLR9 activation of B cells (IL-6 gene; CD83, CD80, CD86, CD69) ([3]; CpG-C 0.15 μM + CXCL4 10 μg/ml, 6 or 24 hours): negatively regulated
TLR8, TLR7 and TLR9 expression levels in pDCs [4]: no impact
